According to PubChem BioAssay (NCI):
Values joined by “and” are separate entries in the source; they are usually repeats but may differ in a detail not shown here. Identical values can stand only once.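 Each compound was tested at five concentrations against cells in 96-well plates for 48 hours. Abbreviation: GI50, concentration required for 50% inhibition of growth. At the TGI there is no net growth.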

Tests used:
Assay in all cases: growth of human tumour cells (NCI), 48 h
[1] = tested on: SF-539 CNS
[2] = tested on: SK-MEL-5 melanoma
[3] = tested on: UACC-257 melanoma
[4] = tested on: ACHN renal
[5] = tested on: SNB-19 CNS
[6] = tested on: IGROV1 ovarian
[7] = tested on: 786-0 renal
[8] = tested on: RPMI-8226 leukemia
[9] = tested on: HCT-15 colon
[10] = tested on: SW-620 colon

SMILES: C[C@]12CCCN1CC1=NNC(=O)c3cc(F)cc4[nH]c2c1c34
- GI50 [1]: 17.6 µM
- TGI [1]: 57.7 µM
- GI50 [2]: 20.7 µM
- TGI [2]: 53.4 µM
- GI50 [3]: 25.1 µM
- TGI [3]: 73.6 µM
- GI50 [4]: 21.1 µM
- TGI [4]: > 100 µM
- GI50 [5]: 25.1 µM
- TGI [5]: > 100 µM
- GI50 [6]: 21.5 µM
- TGI [6]: > 100 µM
- GI50 [7]: 26.2 µM
- TGI [7]: > 100 µM
- GI50 [8]: 19.1 µM
- TGI [8]: 52.3 µM
- GI50 [9]: 21.2 µM
- TGI [9]: > 100 µM
- GI50 [10]: 16.7 µM
- TGI [10]: > 100 µM

SMILES: Cc1ccc(C(=O)C(c2nc3n(c2O)C(=N)N=N3)c2nc3n(c2O)C(=N)N=N3)cc1 (configuration not stated)
- TGI [1]: > 100 µM
- TGI [2]: > 100 µM
- TGI [3]: > 100 µM
- TGI [4]: > 100 µM
- TGI [5]: > 100 µM
- TGI [6]: > 100 µM
- TGI [7]: > 100 µM
- TGI [8]: > 100 µM
- TGI [9]: > 100 µM
- TGI [10]: > 100 µM

SMILES: NC(CP(=O)(O)O)C(=O)O (configuration not stated)
- TGI [2]: > 100 µM
- TGI [3]: > 100 µM
- TGI [4]: > 100 µM
- TGI [5]: > 100 µM
- TGI [6]: > 100 µM
- TGI [7]: > 100 µM
- TGI [8]: > 100 µM
- TGI [9]: > 100 µM
- TGI [10]: > 100 µM

SMILES: CCc1cccc(C)c1N1C(=O)C(=O)C(c2nc3ccccc3o2)/C(=N/NC(=S)NN)C1=O (configuration not stated)
- TGI [1]: > 100 µM
- TGI [2]: > 100 µM
- TGI [3]: > 100 µM
- TGI [4]: > 100 µM
- TGI [5]: > 100 µM
- TGI [6]: > 100 µM
- TGI [7]: > 100 µM
- TGI [8]: > 100 µM
- TGI [9]: > 100 µM
- TGI [10]: > 100 µM

SMILES: COc1ccc(C2=NN(C=O)C(c3ccc(OS(=O)(=O)c4ccc(C)cc4)c(OC)c3)C2)cc1 (configuration not stated)
- GI50 [1]: 8.62 µM
- TGI [1]: > 100 µM
- GI50 [3]: 4.22 µM
- TGI [3]: > 100 µM
- GI50 [4]: 10.1 µM
- TGI [4]: > 100 µM
- GI50 [5]: 11.7 µM
- TGI [5]: > 100 µM
- GI50 [6]: 18.8 µM
- TGI [6]: > 100 µM
- GI50 [7]: 21.6 µM
- TGI [7]: > 100 µM
- GI50 [8]: 4.12 µM
- TGI [8]: > 100 µM
- GI50 [9]: 4.19 µM
- TGI [9]: > 100 µM
- GI50 [10]: 5.31 µM
- TGI [10]: > 100 µM

SMILES: O=C[C@]12CC=C3OC4OC5(CCCCC5)OC4[C@H]3[C@H]1C(=O)C=CC2=O (some centres not stated)
- TGI [1]: 13.4 µM
- TGI [2]: 35.5 µM
- TGI [3]: 45.3 µM
- TGI [4]: 58.5 µM
- TGI [5]: > 100 µM
- TGI [7]: 21.5 µM
- TGI [9]: 43.4 µM
- TGI [10]: 38.9 µM

SMILES: C=C1C(=O)O[C@@H]2C[C@@H]1CC[C@]1(C)O[C@H]1CC/C(C)=C/CC[C@@]2(C)O
- GI50 [1]: 16.5 µM
- TGI [1]: 34.5 µM
- GI50 [2]: 24.3 µM
- TGI [2]: 52.7 µM
- GI50 [3]: 11.3 µM
- TGI [3]: 31.8 µM
- GI50 [5]: 49.6 µM
- TGI [5]: > 100 µM
- GI50 [6]: 31.7 µM
- TGI [6]: > 100 µM
- GI50 [7]: 17 µM
- TGI [7]: 31.2 µM
- GI50 [8]: 6.58 µM
- TGI [8]: > 100 µM
- GI50 [9]: 8.51 µM
- TGI [9]: 21.3 µM
- GI50 [10]: 15.8 µM
- TGI [10]: 33.7 µM

SMILES: O=C1CC(C(=O)O)Cc2c(Br)ccc(O)c21 (configuration not stated)
- TGI [2]: > 100 µM
- TGI [3]: > 100 µM
- TGI [4]: > 100 µM
- TGI [5]: > 100 µM
- TGI [6]: > 100 µM
- TGI [7]: > 100 µM
- TGI [8]: > 100 µM
- TGI [9]: > 100 µM

SMILES: O=C(CC(=O)N1N=C(n2ccc3ccccc32)CC1c1ccccc1)Nc1ccc(Cl)cc1 (configuration not stated)
- TGI [1]: > 100 µM
- TGI [3]: > 100 µM
- TGI [4]: > 100 µM
- TGI [5]: > 100 µM
- TGI [6]: > 100 µM
- TGI [7]: > 100 µM
- TGI [8]: > 100 µM
- TGI [9]: > 100 µM
- TGI [10]: > 100 µM

SMILES: CCOC(=O)NC(=O)c1cn(CCCCCCCCCCC(=O)NCCCN2CCN(CCCNC(=O)CCCCCCCCCCn3cc(C(=O)NC(=O)OCC)c(=O)[nH]c3=O)CC2)c(=O)[nH]c1=O
- TGI [1]: > 100 µM
- TGI [3]: > 100 µM
- TGI [4]: > 100 µM
- TGI [5]: > 100 µM
- TGI [7]: > 100 µM
- TGI [9]: > 100 µM
- TGI [10]: > 100 µM

SMILES: CC12CCCC(C#N)(C1)OC2=O (configuration not stated)
- TGI [1]: > 100 µM
- TGI [2]: > 100 µM
- TGI [3]: > 100 µM
- TGI [4]: > 100 µM
- TGI [5]: > 100 µM
- TGI [6]: > 100 µM
- TGI [7]: > 100 µM
- TGI [10]: > 100 µM

SMILES: CC(=O)n1nnc2ccc([N+](=O)[O-])cc21
- TGI [1]: > 100 µM
- TGI [2]: > 100 µM
- TGI [3]: > 100 µM
- TGI [4]: > 100 µM
- TGI [5]: > 100 µM
- TGI [6]: > 100 µM
- TGI [7]: > 100 µM
- TGI [8]: > 100 µM
- TGI [10]: > 100 µM

SMILES: C=C[C@H]1CN2CCc3c([nH]c4c([C@@H]5CCCN5C)c(O)ccc34)[C@@H]2C[C@@H]1C[C@H]1c2[nH]c3ccccc3c2CCN1C
- GI50 [1]: 0.197 µM
- TGI [1]: 3.14 µM and 0.41 µM and 3.09 µM
- TGI [2]: 3.02 µM and 3.04 µM
- TGI [4]: 3.39 µM and 3.1 µM and 3.32 µM
- GI50 [5]: 1.09 µM
- TGI [5]: 3.5 µM and 2.33 µM and 3.2 µM
- TGI [6]: 2.67 µM and 2.75 µM
- GI50 [7]: 1.63 µM
- TGI [7]: 3.15 µM and 2.83 µM
- GI50 [8]: 1.94 µM
- TGI [9]: 2.49 µM and 2.9 µM
- GI50 [10]: 2.48 µM

SMILES: COC1=CC(c2ccc[nH]2)=N/C1=C\c1[nH]c(C)c(C(=O)Oc2ccccc2)c1C
- GI50 [1]: 0.36 µM
- TGI [1]: 1.63 µM
- GI50 [2]: 0.0929 µM
- TGI [2]: 0.269 µM
- GI50 [3]: 0.545 µM
- TGI [3]: 2.41 µM
- GI50 [4]: 0.23 µM
- TGI [4]: 1.17 µM
- GI50 [5]: 1.29 µM
- TGI [5]: > 100 µM
- GI50 [7]: 0.313 µM
- TGI [7]: 1.64 µM
- GI50 [8]: 0.284 µM
- TGI [8]: 2.02 µM

SMILES: COc1cccc(CCNC(=O)CC(c2ccccc2)(c2ccccc2)c2ccccc2)c1
- GI50 [2]: 4.84 µM
- TGI [2]: > 100 µM
- GI50 [4]: 7.84 µM
- TGI [4]: 94.8 µM
- GI50 [5]: 90.1 µM
- TGI [5]: > 100 µM
- GI50 [7]: 10.6 µM
- TGI [7]: > 100 µM
- GI50 [8]: 4.98 µM
- TGI [8]: > 100 µM
- GI50 [9]: > 100 µM
- TGI [9]: > 100 µM
- GI50 [10]: 85.3 µM
- TGI [10]: > 100 µM

SMILES: O=C1c2cccc([N+](=O)[O-])c2C(=O)c2nccnc21
- TGI [1]: 2.93 µM
- TGI [2]: 1.13 µM
- TGI [3]: 1.66 µM
- TGI [4]: 15.1 µM
- TGI [5]: 4.04 µM
- TGI [7]: 3.2 µM
- TGI [8]: 7.92 µM
- TGI [9]: 2.92 µM
- TGI [10]: 3.92 µM

SMILES: C/C=C(\C)c1cc(=O)c2c(C)cc3c(c2o1)C(OC)(OC(C)=O)c1c(O)c(C2CC(C)(N(C)C)C(OC(C)=O)C(C)O2)cc(C2CC(N(C)C)C(OC(C)=O)C(C)O2)c1C3=O (configuration not stated)
- TGI [2]: > 100 µM
- TGI [4]: 1.52 µM
- TGI [5]: 14.1 µM
- TGI [6]: 57.1 µM
- TGI [7]: > 21.4 µM
- TGI [9]: 6.9 µM
- TGI [10]: 4.94 µM

SMILES: COC(=O)C1CC(c2ccc(Cl)cc2)=NO1 (configuration not stated)
- TGI [1]: > 100 µM
- TGI [2]: > 100 µM
- TGI [3]: > 100 µM
- TGI [4]: > 100 µM
- TGI [6]: > 100 µM
- TGI [7]: > 100 µM
- TGI [8]: > 100 µM
- TGI [9]: > 100 µM
- TGI [10]: > 100 µM

SMILES: CC(=O)N(C)c1cc(NCc2ccccc2)ccc1OCc1ccccc1
- TGI [1]: 32 µM
- TGI [2]: 33.8 µM
- TGI [3]: 31.1 µM
- TGI [4]: 36.5 µM
- TGI [5]: 35.8 µM
- TGI [6]: 30.5 µM
- TGI [7]: 76.6 µM
- TGI [9]: 39.2 µM
- TGI [10]: 56.5 µM

SMILES: COc1ccc(NC(=S)C#N)cc1
- TGI [1]: > 100 µM
- TGI [2]: > 100 µM
- TGI [3]: > 100 µM
- TGI [4]: > 100 µM
- TGI [5]: > 100 µM
- TGI [7]: > 100 µM
- TGI [8]: > 100 µM
- TGI [9]: > 100 µM
- TGI [10]: > 100 µM
